Test results published in patent US20150225369A1, “DDR2 INHIBITORS FOR THE TREATMENT OF OSTEOARTHRITIS” (Merck Patent GmbH, priority 2012, published 2015).

biological target: T1, HEK293 transfected with human DDR2 (Homo sapiens, UniProt Q16832); test: Phospho-DDR2 cellular assay (collagen II induced DDR2 phosphorylation, ELISA); type: cell-based; conditions: HEK293 transfected with human DDR2, 50 μg/ml chicken collagen II, 16 h; read-out: IC50 [p-DDR2]
T1 construct: expressed in transfected cells; host or cells: HEK293 (PLT460F_(DDR2)-P7-1)
T1 sequence (Q16832 22-855): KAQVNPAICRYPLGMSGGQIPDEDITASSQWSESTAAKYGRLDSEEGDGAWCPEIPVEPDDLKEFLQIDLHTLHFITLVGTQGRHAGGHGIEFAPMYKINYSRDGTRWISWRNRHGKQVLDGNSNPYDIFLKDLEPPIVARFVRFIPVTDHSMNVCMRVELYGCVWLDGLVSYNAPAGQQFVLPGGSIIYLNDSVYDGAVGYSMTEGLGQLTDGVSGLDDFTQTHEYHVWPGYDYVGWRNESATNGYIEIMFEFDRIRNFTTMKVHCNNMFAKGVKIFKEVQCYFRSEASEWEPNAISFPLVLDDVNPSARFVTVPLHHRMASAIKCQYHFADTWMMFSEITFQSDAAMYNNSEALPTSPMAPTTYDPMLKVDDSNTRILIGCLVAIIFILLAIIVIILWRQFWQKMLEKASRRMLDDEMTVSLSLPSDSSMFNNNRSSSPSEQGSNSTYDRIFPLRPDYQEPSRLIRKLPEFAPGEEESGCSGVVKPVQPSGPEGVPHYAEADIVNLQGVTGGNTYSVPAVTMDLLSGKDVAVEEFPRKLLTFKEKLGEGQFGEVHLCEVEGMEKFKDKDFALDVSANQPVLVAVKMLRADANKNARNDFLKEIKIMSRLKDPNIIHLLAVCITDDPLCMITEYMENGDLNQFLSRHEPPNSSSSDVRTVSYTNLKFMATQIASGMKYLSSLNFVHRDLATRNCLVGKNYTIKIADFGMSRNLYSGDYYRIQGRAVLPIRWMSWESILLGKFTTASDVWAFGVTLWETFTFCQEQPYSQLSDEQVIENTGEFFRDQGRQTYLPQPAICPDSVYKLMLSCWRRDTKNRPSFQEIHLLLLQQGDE
Description: Assays were performed in a 384 well plate format, using cell line HEK293 transfected with human DDR2 (PLT460F_(DDR2)-P7-1)
Cells were seeded at a density of 10'000 cells/well in 384well poly-D-lysine coated Black/clear plate (Cellcoat Greiner) and incubated in DMEM medium in the presence of 10% fetal bovine serum at 37° C., 5% CO2 for 48 h. Medium was replaced by serum-free medium and cells were incubated at 37° C., 5% CO2 for 8 h. Compound to be tested in 5% DMSO or 5% DMSO and 50 μg/ml of chicken collagen II were added and cells were incubated at 37° C., 5% CO2 for 16 h
Cells were rinsed with ice-cold PBS, lysed with lysis buffer (M-PER Thermo #78501) for 30 min at room temperature and centrifuged for 1 min at 1000 RPM. In parallel, White High binding 384 well plates (Corning) were coated with mouse anti-human DDR2 capture antibody (R&D Systems kit DuoSet IC Human phospho-DDR2 ELISA), overnight at RT.
An aliquot of cell lysate was transferred to the coated plates and incubated for 2 h at RT. Plates were washed and mouse anti-phospho-tyrosine detection antibody (R&D Systems kit DuoSet IC Human phospho-DDR2 ELISA) conjugated to horse radish peroxidase (HRP) was added for 2 h at RT. Plates were washed and chemiluminescent substrate for HRP (Thermo) was added for 15 min at RT. Luminescence was measured on a luminometer.

Question: How did the IC50 turn out when Cn1cc(C(F)(F)F)cc(NC(=O)NCc2ccc(Oc3ccnc4c3CNC(=O)N4)cc2)c1=O [compound 5] was run?
Answer: Its IC50 is 5.9 nM.

same assay, conditions: cellular phospho-DDR2; read-out: IC50 [p-DDR2]

Question: For CNC(=O)c1cc(Oc2ccc(CNC(=O)Nc3cc(C)c(Cl)cc3NC(C)=O)cc2C)ccn1 [compound 186, 4-{4-[3-(2-Acetylamino-4-chloro-5-methyl-phenyl)-ureidomethyl]-2-methyl-phenoxy}-pyridine-2-carboxylic acid methylamide], which IC50 is on record?
Answer: The IC50 was 330 nM.

Question: How did the IC50 turn out when CNC(=O)c1cc(Oc2ccc(CNC(=O)Nc3cccc(S(C)(=O)=O)c3)cc2)ccn1 [compound 135, 4-{4-[3-(3-Methanesulfonyl-phenyl)-ureidomethyl]-phenoxy}-pyridine-2-carboxylic acid methylamide] was run?
Answer: Its IC50 is 390 nM.

Question: How did the IC50 turn out when CNC(=O)c1cc(Oc2ccc(CNC(=O)Nc3ccccc3CO)cc2C)ccn1 [compound 198, 4-{4-[3-(2-Hydroxymethyl-phenyl)-ureidomethyl]-2-methyl-phenoxy}-pyridine-2-carboxylic acid methylamide] was run?
Answer: The IC50 was 7500 nM.

Question: How did the IC50 turn out when CNC(=O)c1cc(Oc2ccc(C(C)NC(=O)Nc3cc(Cl)c(Cl)cc3Cl)cc2)ccn1 (centres unmarked) [compound 70, 4-(4-{1-[3-(2,4,5-Trichloro-phenyl)-ureido]-ethyl}-phenoxy)-pyridine-2-carboxylic acid methylamide] was run?
Answer: The IC50 was 735 nM.

Question: For CNC(=O)c1cc(Oc2ccc(CNC(=O)Nc3cccc(C(F)(F)F)c3)cc2F)ccn1 [compound 233, 4-{2-Fluoro-4-[3-(3-trifluoromethyl-phenyl)-ureidomethyl]-phenoxy}-pyridine-2-carboxylic acid methylamide], which IC50 is on record?
Answer: The IC50 was 27 nM.

Question: With CNCCNC(=O)c1cc(Oc2ccc(CNC(=O)Nc3ccc(Cl)c(C(F)(F)F)c3)cc2)ccn1 [compound 149, 4-{4-[3-(4-Chloro-3-trifluoromethyl-phenyl)-ureidomethyl]-phenoxy}-pyridine-2-carboxylic acid (2-methylamino-ethyl)-amide] as the compound, how does the IC50 read?
Answer: Its IC50 is 925 nM.

Question: Which IC50 does the source give for NCCNC(=O)c1cc(Oc2ccc(CNC(=O)Nc3ccc(Cl)c(C(F)(F)F)c3)cc2)ccn1 [compound 148, 4-{4-[3-(4-Chloro-3-trifluoromethyl-phenyl)-ureidomethyl]-phenoxy}-pyridine-2-carboxylic acid (2-amino-ethyl)-amide] here?
Answer: The IC50 was 785 nM.

Question: CNC(=O)c1cc(Oc2ccc(CNC(=O)Nc3cc(Cl)cc(Cl)c3)cc2)ccn1 [compound 31] was tested. Which IC50 did it give?
Answer: Its IC50 is 175 nM.

Question: CNC(=O)c1cc(Oc2ccc(CNC(=O)Nc3cc(C)c(Cl)cc3N(C)CCN(C)C)cc2C)ccn1 [compound 164, 4-[4-(3-{4-Chloro-2-[(2-dimethylamino-ethyl)-methyl-amino]-5-methyl-phenyl}-ureidomethyl)-2-methyl-phenoxy]-pyridine-2-carboxylic acid methylamide] was tested. Which IC50 did it give?
Answer: Its IC50 is 300 nM.

Question: CNC(=O)c1cc(Oc2ccc(CNC(=O)Nc3cc(C(C)(C)C)n[nH]3)cc2)ccn1 [compound 223, 4-{4-[3-(5-tert-Butyl-2H-pyrazol-3-yl)-ureidomethyl]-phenoxy}-pyridine-2-carboxylic acid methylamide] was tested. Which IC50 did it give?
Answer: The IC50 was 7950 nM.

Question: How did the IC50 turn out when CNC(=O)c1cc(Oc2ccc(CNC(=O)Nc3cc(C)c(Cl)cc3-n3cccc3)cc2)ccn1 [compound 219, 4-{4-[3-(4-Chloro-5-methyl-2-pyrrol-1-yl-phenyl)-ureidomethyl]-phenoxy}-pyridine-2-carboxylic acid methylamide] was run?
Answer: Its IC50 is 114 nM.

Question: For CNC(=O)c1cc(Oc2ccc(CNC(=O)Nc3cc(C)c(Cl)cc3N(C)CCN(C)C)cc2)ccn1 [compound 162, 4-[4-(3-{4-Chloro-2-[(2-dimethylamino-ethyl)-methyl-amino]-5-methyl-phenyl}-ureidomethyl)-phenoxy]-pyridine-2-carboxylic acid methylamide], which IC50 is on record?
Answer: Its IC50 is 1600 nM.

Question: Which IC50 does the source give for CNC(=O)c1cc(Oc2ccc(CNC(=O)Nc3cc(C(F)(F)F)ccc3-n3ccnn3)cc2C)ccn1 [compound 203, 4-{2-Methyl-4-[3-(2-[1,2,3]triazol-1-yl-5-trifluoromethyl-phenyl)-ureidomethyl]-phenoxy}-pyridine-2-carboxylic acid methylamide] here?
Answer: The IC50 was 19 nM.

Question: With CNC(=O)c1cc(Oc2ccc(CNC(=O)Nc3cc(C(F)(F)F)ccc3-n3ccnc3)cc2C)ccn1 [compound 240, 4-{4-[3-(2-Imidazol-1-yl-5-trifluoromethyl-phenyl)-ureidomethyl]-2-methyl-phenoxy}-pyridine-2-carboxylic acid methylamide] as the compound, how does the IC50 read?
Answer: The IC50 was 2900 nM.

Question: With CNC(=O)c1cc(Oc2ccc(CNC(=O)Nc3cc(OC)c(OC)c(OC)c3)cc2)ccn1 [compound 80, 4-{4-[3-(3,4,5-Trimethoxy-phenyl)-ureidomethyl]-phenoxy}-pyridine-2-carboxylic acid methylamide] as the compound, how does the IC50 read?
Answer: The IC50 was 750 nM.

Question: For CNC(=O)Cc1ccc(C(F)(F)F)cc1NC(=O)NCc1ccc(Oc2ccnc(C(=O)NC)c2)c(C)c1 [compound 200, 4-{2-Methyl-4-[3-(2-methylcarbamoylmethyl-5-trifluoromethyl-phenyl)-ureidomethyl]-phenoxy}-pyridine-2-carboxylic acid methylamide], which IC50 is on record?
Answer: Its IC50 is 455 nM.

Question: For CNC(=O)c1cc(Oc2ccc(CNC(=O)Nc3ccc(F)cc3)cc2)ccn1 [compound 12], which IC50 is on record?
Answer: Its IC50 is 775 nM.

Question: Which IC50 does the source give for CNC(=O)c1cc(Oc2ccc(CNC(=O)Nc3cc(C)on3)cc2)ccn1 [compound 236, 4-{4-[3-(5-Methyl-isoxazol-3-yl)-ureidomethyl]-phenoxy}-pyridine-2-carboxylic acid methylamide] here?
Answer: Its IC50 is 2050 nM.

Question: How did the IC50 turn out when CNC(=O)c1cc(Oc2ccc(CNC(=O)Nc3nnc(C(F)(F)F)s3)cc2)ccn1 [compound 222, 4-{4-[3-(5-Trifluoromethyl-[1,3,4]thiadiazol-2-yl)-ureidomethyl]-phenoxy}-pyridine-2-carboxylic acid methylamide] was run?
Answer: Its IC50 is 575 nM.

Question: How did the IC50 turn out when CNC(=O)c1cc(Oc2ccc(CNC(=O)Nc3cccc(N(C)C)c3)cc2)ccn1 [compound 228, 4-{4-[3-(3-Dimethylamino-phenyl)-ureidomethyl]-phenoxy}-pyridine-2-carboxylic acid methylamide] was run?
Answer: The IC50 was 1500 nM.

Question: Which IC50 does the source give for CNC(=O)c1cc(Oc2ccc(CNC(=O)Nc3ccc(OC)c(Cl)c3)cc2)ccn1 [compound 39, 4-{4-[3-(3-Chloro-4-methoxy-phenyl)-ureidomethyl]-phenoxy}-pyridine-2-carboxylic acid methylamide] here?
Answer: The IC50 was 64 nM.

Question: CNC(=O)c1cc(Oc2ccc(CNC(=O)Nc3cc(Cl)ccc3C)cc2)ccn1 [compound 42, 4-{4-[3-(5-Chloro-2-methyl-phenyl)-ureidomethyl]-phenoxy}-pyridine-2-carboxylic acid methylamide] was tested. Which IC50 did it give?
Answer: Its IC50 is 230 nM.

Question: With CNC(=O)c1cc(Oc2ccc(CNC(=O)Nc3cc(C(F)(F)F)ccc3-n3ccnc3)cc2)ccn1 [compound 243, 4-{4-[3-(2-Imidazol-1-yl-5-trifluoromethyl-phenyl)-ureidomethyl]-phenoxy}-pyridine-2-carboxylic acid methylamide] as the compound, how does the IC50 read?
Answer: Its IC50 is 9400 nM.

Question: With CNC(=O)c1cc(Oc2ccc(CNC(=O)Nc3cc(C(F)(F)F)ccc3N3CCNCC3)cc2)ccn1 [compound 122, 4-{4-[3-(2-Piperazin-1-yl-5-trifluoromethyl-phenyl)-ureidomethyl]-phenoxy}-pyridine-2-carboxylic acid methylamide] as the compound, how does the IC50 read?
Answer: Its IC50 is 135 nM.

Question: How did the IC50 turn out when CNC(=O)c1cc(Oc2ccc(CNC(=O)Nc3cccc(S(=O)(=O)NC(C)C)c3)cc2)ccn1 [compound 158, 4-{4-[3-(3-Isopropylsulfamoyl-phenyl)-ureidomethyl]-phenoxy}-pyridine-2-carboxylic acid methylamide] was run?
Answer: The IC50 was 100000 nM.
